Results from patent US4673436A, “N, S containing corrosion inhibitors” (Exxon Chemical Patents Inc., priority 1986, dated 1987).

What was measured:
[1] = Corrosion wheel test, sweet (50-50 3% NaCl brine - Mentor, saturated CO2 only), Tables III, VI, VII; conditions: for corrosion protection / performance (in words): CO2 only corrosive environment; for % Protection @ 2 ppm / % Protection @ 8 ppm / % Protection @ 128 ppm / % Protection @ 4 ppm / % Protection @ 32 ppm: 160° F., 24 hours, saturated CO2 only
[2] = as above; conditions: Table III, 160° F., 24 hours
Protocol: Twelve quaternary ammonium salts according to the present invention, were tested under four standard sets of corrosion wheel test conditions. These include a sweet-sour test in an all water system under a range of concentrations from 4-256 ppm (TABLE I). Tests 2 and 3 were run under sweet (TABLE III), and sour conditions (TABLE II) at low (4 ppm) and high (256 ppm) concentrations only.
(§1) Fluids: 50-50 3% NaCl brine - Mentor
(§2) Duplicates w/ triplicate blanks
Fluids: 50-50 - 3% NaCl brine - Mentor

[3] = Inhibitor solubility test, Table V; assay type: physicochemical; conditions: 20% active inhibitor added at 0.5% by volume; observed initially and after 24 hours
[4] = Corrosion wheel test, sweet-sour, all water system (3% NaCl brine, saturated CO2 + 100 ppm H2S), Table I; conditions: 160° F., 24 hours, 3% NaCl brine only
Protocol: (§3) Twelve quaternary ammonium salts according to the present invention, were tested under four standard sets of corrosion wheel test conditions. These include a sweet-sour test in an all water system under a range of concentrations from 4-256 ppm (TABLE I). Tests 2 and 3 were run under sweet (TABLE III), and sour conditions (TABLE II) at low (4 ppm) and high (256 ppm) concentrations only. A film persistency test (TABLE IV) was also run for completeness of the screening sequence; however, it was not expected that these water soluble compounds would perform well under these test conditions. Due to the low solubility of some C18 derivatives, 20% activity was adopted as a standard, with the C18 compounds being submitted at 10% activity and added at double concentration to the test fluids. […] Compounds are generally water and low brine soluble, hydrocarbon dispersible with some C18 derivatives being soluble in both fresh water and hydrocarbon.
Blank weight loss: 40 ± 0.9 mg
(§4) Fluids: 3% NaCl brine only
(§5) Saturated CO2 + 100 ppm H2 S
as §2

[5] = Film persistent corrosion wheel test (50-50 3% NaCl brine - Mentor, saturated CO2 + 100 ppm H2S), Table IV; conditions: 160° F., film 1 hr, rinse 1 hr, run 24 hrs, single data points
Protocol: as §3
Blank weight loss: 58.3 ± 3.3 mg
Film 1 hr, Rinse 1 hr, Run 24 hrs.
as §1, §5
Single data points with triplicate blanks

[6] = Corrosion wheel test, sour (3% NaCl brine, saturated N2 + 500 ppm H2S), Table II; conditions: 160° F., 24 hours, 3% NaCl brine only
Protocol: as §3
Blank weight loss: 55.8 ± 1.0 mg
as §4
Saturated N2 + 500 ppm H2 S
Duplicates and triplicate blanks

[7] = Table VII, thiol addition comparison

SMILES	% Protection @ 2 ppm [1, 7] [%]	% Protection @ 8 ppm [1, 7] [%]	% Protection @ 128 ppm [1, 7] [%]	% Protection @ 4 ppm [2] [%]	% Protection @ 256 ppm [2] [%]	Solubility in 5% NaCl brine [3]	Solubility in aromatic naphtha [3]	Solubility in distilled water [3]	Solubility in kerosene [3]	% Protection @ 2 ppm ([1]; Table VI confirmatory test) [%]	% Protection @ 4 ppm ([1]; Table VI confirmatory test) [%]	% Protection @ 8 ppm ([1]; Table VI confirmatory test) [%]	% Protection @ 32 ppm ([1]; Table VI confirmatory test) [%]	% Protection @ 4 ppm [4] [%]	% Protection @ 8 ppm [4] [%]	% Protection @ 16 ppm [4] [%]	% Protection @ 256 ppm [4] [%]	% Protection @ 10,000 ppm [5] [%]	% Protection @ 4 ppm [6] [%]	% Protection @ 256 ppm [6] [%]	further results
CCCCCCCCCC[N+](C)(C)C [C10 H21 NMe3 I, reference compound]	0	4	3																		corrosion protection / performance (in words) ([1]; Table VII): too short an alkyl chain length to function effectively as a corrosion inhibitor
CCCCCCCCCCCCS [C12 H25 SH, dodecane thiol, reference compound]	4	7	0																		corrosion protection / performance (in words) ([1]; Table VII): neither did dodecene thiol alone give any corrosion protection
CCCCCCCCCCCC[N+](C)(C)CCS [Compound 2]	23	72	84	56	81	disp	disp	sol	disp	13	42	69	82	35	44	67	77	64	23	79	% Protection @ 128 ppm ([1]; Table VI confirmatory test): 80%
CCCCCCCCCCCCCCCCCC[N+](C)(C)CCS [Compound 3]				62	92	disp	sol	sol	sol	18	18	76	79	31	41	58	60	53	11	83	% Protection @ 128 ppm ([1]; Table VI confirmatory test): 81%
CCCCCCCC[N+](C)(C)CCCS [Compound 4]	62	86	85	83	86	disp	disp	sol	disp	41	63	82	80	32	55	66	76	14	3	81	% Protection @ 128 ppm ([1]; Table VI confirmatory test): 78%
CCCCCCCCCCCC[N+](C)(C)CCCS [Compound 5]				82	85	sol	disp	sol	disp	45	63	79	80	30	59	67	76	25	17	77	% Protection @ 128 ppm ([1]; Table VI confirmatory test): 78%
CCCCCCCCSCC[N+](C)(C)C [Compound 7]				29	65	sol	disp	sol	disp					15	17	11	31	11	7	72	
CCCCCCCCCCCCCCCCCCSCC[N+](C)(C)C [Compound 9]				38	84	insol	disp	disp	disp					26	33	52	66	17	6	75	
CCCCCCCCCCCCSCCC[N+](C)(C)C [Compound 11]				60	84	sol	disp	sol	disp					21	27	35	79	20	15	80	
CCCCCCCCCCCCCCCCCCSCCC[N+](C)(C)C [Compound 12]				50	83	insol	sol	sol	disp					49	56	57	69	14	14	81	
